In PubChem BioAssay AID2060909 (Molecular Pharmacology Branch, DTP, NCI, 2025):
Several values for one entry are separate records, joined by “and”; a condition that tells them apart may be missing. Equal entries are not always repeated.

System: 362531-283-R-J2-PDC complex spheroid viability
Assay: Anticancer human tumor 362531-283-R-J2-PDC patient-derived colon adenocarcinoma cell line growth inhibition [RAS]
Conditions: for viability, T/C: stronger effect = lower value; active = viability on the fitted dose curve at most 10% of control; inactive = the rest
Excerpt: RAS pathway inhibitors in Combinations in Complex Spheroids
A high-throughput screen of multi-cell type tumor spheroids was designed to identify active combinations of RAS pathway inhibitors and targeted small molecules. Complex spheroids include a stromal component modeled by human endothelial cells (HUVEC) and fibroblasts modeled by human mesenchymal stem cells (MSCs). The concentration ranges selected for each drug and investigational agent were based upon clinically achievable concentrations if the clinical Cmax of the agent was known.
Compounds. The drugs and investigational agents: abemaciclib (NSC768073), cobimetinib (NSC768068), divarasib (GDC6063, NSC841802), docetaxel (NSC628503), GDC-1971 (RLY-1971, NSC841576), gemcitabine (NSC613327), inavolisib (NSC800729), ipatasertib (NSC767898), KB-0742 (NSC834161), MRTX-1133 (NSC836407), osimertinib (NSC779217), RMC-4630 (NSC839698), RMC-6236 (NSC851965), RMC-6291 (NSC852671), Ro-3306 (NSC812927), sapanisertib (NSC764658), SN-38 (NSC673596), staurosporine (NSC755774), SY5609 (NSC837396), and tovorafenib (DAY101, NSC766906), were obtained from the National Cancer Institute (NCI) Developmental Therapeutics Program Chemical Repository. The FDA-approved anticancer drug set is available from the NCI Developmental Therapeutics Program. […] The stock solutions were prepared in dimethyl sulfoxide (DMSO, Sigma-Aldrich, St. Louis, MO, cat. D2650) at 800-fold the tested concentration and stored at -70 degrees C prior to their use. All drugs and investigational agents were tested over a range starting from a high concentration at or near the clinical Cmax and decreasing in half-log increments. If the clinical Cmax for an agent had not been determined, the highest concentration tested was 10 microM.
Cell Culture. All cells were maintained in an incubator at 37 degrees C and 5% CO2 with 95% humidity. The PDC lines were cultured according to standard operating procedures established by the NCI PDMR. All PDCs were thawed and cultured in Matrigel-coated flasks prepared with a working solution of 1X Ham's F-12 nutrient mix, without supplementation (Invitrogen, Waltham, MA, cat. 11765054), 100 U/mL penicillin-streptomycin (Invitrogen, cat. 15140122), and 2.5% Matrigel (Corning Inc., Corning, NY, cat. 354248) for the first three passages. The 362531-283-R-J2-PDC and 782815-120-R-J1-PDC lines were cultured in 6C/Colon 1B media, which includes advanced DMEM/F-12 (Thermo Fisher Scientific, cat. 12634028), 10 mM HEPES (Thermo Fisher Scientific, cat. 15630080), 1X GlutaMAX supplement (Thermo Fisher Scientific, cat. 35050061), 0.1 mg/mL primocin (InvivoGen, San Diego, CA, cat. ant-pm-2), 10% defined fetal bovine serum, heat inactivated (HyClone Laboratories Inc., Logan, UT, cat. SH30070.03HI), 50% L-WRN conditioned media (ATCC, cat. CRL-3276), 1.25 mM N-Acetyl-L-cysteine (Sigma-Aldrich, cat. A9165), 10 mM nicotinamide (Sigma-Aldrich, cat. N0636), 1X B-27 supplement (Thermo Fisher Scientific, cat. 17504044), 1X N-2 supplement (Thermo Fisher Scientific, cat. 17502048), 50 ng/mL human EGF (Thermo Fisher Scientific, cat. PHG0311), and 10 microM Y-27632 dihydrochloride (Tocris Bioscience, cat. 1254). The K12877-001-R-J1-PDC line was cultured in 6I media, which includes all 6C/Colon 1B media plus 10 ng/mL human FGF-10 (PeproTech, cat. 100-26), 1 ng/mL human FGF-2 (PeproTech, cat. 100-18B), 1 µM prostaglandin E2 (Tocris Bioscience, cat. 2296), […] hydrocortisone (Sigma-Aldrich, cat. H4001), and […] bovine insulin (Sigma-Aldrich, cat. I6634). The K86415-001-R-J1-PDC line was cultured in 6D media, which includes all 6C/Colon 1B media components minus the L-WRN conditioned media. The 485176-168-R4-J1-PDC was cultured in PANC media, which includes all 6C/Colon 1B media plus 100 ng/mL human FGF-10 (PeproTech, cat. 100-26), 500 nM SB-431542 (Selleckchem, cat. S1067), and 10 nM gastrin (Tocris Bioscience, cat. 3006). […]

[1] = curve of first compound, second compound 0.0316 µM
[2] = curve of first compound, second compound 0.1 µM
[3] = curve of first compound, second compound 0.316 µM
[4] = curve of first compound, second compound 1 µM
[5] = second compound 0.0316 µM, first compound 0.00316 µM
[6] = second compound 0.0316 µM, first compound 0.01 µM
[7] = second compound 0.0316 µM, first compound 0.0316 µM
[8] = second compound 0.0316 µM, first compound 0.1 µM
[9] = second compound 0.1 µM, first compound 0.00316 µM
[10] = second compound 0.1 µM, first compound 0.01 µM
[11] = second compound 0.1 µM, first compound 0.0316 µM
[12] = second compound 0.1 µM, first compound 0.1 µM
[13] = second compound 0.316 µM, first compound 0.00316 µM
[14] = second compound 0.316 µM, first compound 0.01 µM
[15] = second compound 0.316 µM, first compound 0.0316 µM
[16] = second compound 0.316 µM, first compound 0.1 µM
[17] = second compound 1 µM, first compound 0.00316 µM
[18] = second compound 1 µM, first compound 0.01 µM
[19] = second compound 1 µM, first compound 0.0316 µM
[20] = second compound 1 µM, first compound 0.1 µM
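Note: spheroids exposed to the agents for 7 days before readout.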
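Throughout, for viability, T/C: luminescence viability as percent of DMSO vehicle control wells.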

CC(C)n1nc(-c2ccc3oc(N)nc3c2)c2c(N)ncnc21 + C#Cc1c(F)ccc2cc(O)cc(-c3ncc4c(N5CC6CCC(C5)N6)nc(OCC56CCCN5CC(F)C6)nc4c3F)c12
> 100 nM: IC50 [1] | IC50 [2]
< 0.316 nM: IC50 (curve of first compound, second compound 10 µM)
13.1 nM: IC50 [4]
inactive: viability, T/C (second compound 0.0316 µM, first compound 0.000316 µM) 96% | viability, T/C (second compound 0.0316 µM, first compound 0.001 µM) 87.6% | viability, T/C [5] 91.9% | viability, T/C [6] 78.7% | viability, T/C [7] 50.2% | viability, T/C [8] 53.2% | viability, T/C (second compound 0.1 µM, first compound 0.000316 µM) 104% | viability, T/C (second compound 0.1 µM, first compound 0.001 µM) 98% | viability, T/C [9] 86.3% | viability, T/C [10] 68% | viability, T/C [11] 66.6% | viability, T/C [12] 48.7% | viability, T/C (second compound 0.316 µM, first compound 0.000316 µM) 91.9% | viability, T/C (second compound 0.316 µM, first compound 0.001 µM) 94.5% | viability, T/C [13] 85.6% | viability, T/C [14] 62.5% | viability, T/C [15] 41.1% | viability, T/C [16] 41.5% | viability, T/C (second compound 1 µM, first compound 0.000316 µM) 80.4% | viability, T/C (second compound 1 µM, first compound 0.001 µM) 86.2% | viability, T/C [17] 78.2% | viability, T/C [18] 51.9% | viability, T/C [19] 45.9% | viability, T/C [20] 38.4% | viability, T/C (second compound 3.16 µM, first compound 0.000316 µM) 74.2% | viability, T/C (second compound 3.16 µM, first compound 0.001 µM) 55.2% | viability, T/C (second compound 3.16 µM, first compound 0.00316 µM) 57.4% | viability, T/C (second compound 3.16 µM, first compound 0.01 µM) 35.3% | viability, T/C (second compound 3.16 µM, first compound 0.0316 µM) 33.6% | viability, T/C (second compound 3.16 µM, first compound 0.1 µM) 26.1% | viability, T/C (second compound 10 µM, first compound 0.000316 µM) 42.9% | viability, T/C (second compound 10 µM, first compound 0.001 µM) 42.5% | viability, T/C (second compound 10 µM, first compound 0.00316 µM) 34% | viability, T/C (second compound 10 µM, first compound 0.01 µM) 25.5% | viability, T/C (second compound 10 µM, first compound 0.0316 µM) 20.1% | viability, T/C (second compound 10 µM, first compound 0.1 µM) 18.3%
20.5 nM: IC50 [3]
3.09 nM: IC50 (curve of first compound, second compound 3.16 µM)

CCc1c2c(nc3ccc(O)cc13)-c1cc3c(c(=O)n1C2)COC(=O)[C@]3(O)CC
inactive: viability, T/C (compound 0.000949 µM) 92.4% [middle of 4 runs] | viability, T/C (compound 0.003 µM) 93.4% [middle of 4 runs] | viability, T/C (compound 0.00949 µM) 74.5% [middle of 4 runs] | viability, T/C (compound 0.03 µM) 61.8% [middle of 4 runs] | viability, T/C (compound 0.0949 µM) 30.2% [middle of 4 runs] | viability, T/C (compound 0.3 µM) 19.9% [middle of 4 runs]
43.7 nM [middle of 4 runs]: IC50 (curve of compound)

CC1(O)CCCC1n1c(=O)c(C(F)F)cc2cnc(NC3CCN(S(C)(=O)=O)CC3)nc21 (stereo unspecified)
> 10000 nM and 9270 nM and 6010 nM: IC50 (curve of compound)
inactive: viability, T/C (compound 0.0316 µM) 103% (2×) and 94% and 97.4% | viability, T/C (compound 0.1 µM) 104% [middle of 4 runs] | viability, T/C (compound 0.316 µM) 89.9% [middle of 4 runs] | viability, T/C (compound 3.16 µM) 68.3% [middle of 4 runs]

Nc1ccn(C2OC(CO)C(O)C2(F)F)c(=O)n1 (stereo unspecified) + C=CC(=O)N1CCN(c2nc(OCC3CCCN3C)nc3c(F)c(-c4nc(N)cc(C)c4C(F)(F)F)c(Cl)cc23)C(C)C1
129 nM: IC50 (curve of first compound, second compound 0.00316 µM)
169 nM: IC50 (curve of first compound, second compound 0.01 µM)
144 nM: IC50 [4]
inactive: viability, T/C (second compound 0.00316 µM, first compound 0.00316 µM) 107% | viability, T/C (second compound 0.00316 µM, first compound 0.01 µM) 100% | viability, T/C (second compound 0.00316 µM, first compound 0.0316 µM) 81.2% | viability, T/C (second compound 0.00316 µM, first compound 0.1 µM) 61.8% | viability, T/C (second compound 0.00316 µM, first compound 0.316 µM) 22.7% | viability, T/C (second compound 0.00316 µM, first compound 1 µM) 29.7% | viability, T/C (second compound 0.01 µM, first compound 0.00316 µM) 93.5% | viability, T/C (second compound 0.01 µM, first compound 0.01 µM) 95.3% | viability, T/C (second compound 0.01 µM, first compound 0.0316 µM) 80.9% | viability, T/C (second compound 0.01 µM, first compound 0.1 µM) 70% | viability, T/C (second compound 0.01 µM, first compound 0.316 µM) 21.7% | viability, T/C (second compound 0.01 µM, first compound 1 µM) 30.7% | viability, T/C [5] 93.5% | viability, T/C [6] 91% | viability, T/C [7] 87.7% | viability, T/C [8] 64.9% | viability, T/C (second compound 0.0316 µM, first compound 0.316 µM) 23.6% | viability, T/C (second compound 0.0316 µM, first compound 1 µM) 27% | viability, T/C [9] 94.9% | viability, T/C [10] 94.9% | viability, T/C [11] 77.4% | viability, T/C [12] 61% | viability, T/C (second compound 0.1 µM, first compound 0.316 µM) 23.6% | viability, T/C (second compound 0.1 µM, first compound 1 µM) 31.7% | viability, T/C [13] 93.8% | viability, T/C [14] 97.1% | viability, T/C [15] 89.4% | viability, T/C [16] 75.7% | viability, T/C (second compound 0.316 µM, first compound 0.316 µM) 23.3% | viability, T/C (second compound 0.316 µM, first compound 1 µM) 27.6% | viability, T/C [17] 105% | viability, T/C [18] 97.9% | viability, T/C [19] 78.9% | viability, T/C [20] 65.2% | viability, T/C (second compound 1 µM, first compound 0.316 µM) 25.1% | viability, T/C (second compound 1 µM, first compound 1 µM) 29.7%
154 nM: IC50 [1]
180 nM: IC50 [3]
130 nM: IC50 [2]
